Measurements taken from ChEMBL document CHEMBL2169770, “The discovery and optimization of a novel class of potent, selective, and orally bioavailable anaplastic lymphoma kinase (ALK) inhibitors with potential utility for the treatment of cancer” (J Med Chem, 2012).

How the values were obtained:
[1] = Oral bioavailability in Beagle dog; format: ADME, organism-based, Canis lupus familiaris; conditions: in vivo
[2] = Volume of distribution at steady state in Beagle dog; format: ADME, organism-based, Canis lupus familiaris; conditions: in vivo, read-out: Vdss
[3] = Oral bioavailability in rat; format: ADME, organism-based; conditions: in vivo
[4] = Volume of distribution at steady state in rat; format: ADME, organism-based; conditions: in vivo, read-out: Vdss

Row | Compound | bioavailability [1] [%] | Vd [2] [L/kg] | bioavailability [3] [%] | Vd [4] [L/kg]
1 | CC(C)NC(=O)[C@H]1CC[C@@H](n2/c(=N/C(=O)c3ccc(F)cc3)[nH]c3ccc(CN4CCC(C(C)(C)O)CC4)cc32)CC1 | 52 | 1.58 | 20 | 6.4
2 | CC(C)NC(=O)[C@H]1CC[C@@H](n2/c(=N/C(=O)c3cc(F)cc(F)c3)[nH]c3ccc(CN4CCC(C(C)(C)O)CC4)cc32)CC1 | 71 | 1.82 | 11 | 5.42
